Results reported in publication PMC6979384, “Characterization of the plant homeodomain (PHD) reader family for their histone tail interactions” (Epigenetics & Chromatin, 2020).

Key:
Assay in all cases: Histone peptide microarray
Type in all cases: binding, human
Settings in all cases: histone peptide array
PHF13 = tested on: PHF13
How it was run: (§1)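 Binding of recombinant GST-fused PHD readers (0.5 μM) is detected on an array of 293 histone peptides, modified singly or in combination. An optimized array protocol is followed, and each intensity is the average of quadruplicate measurements with standard deviation.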

SP140L = tested on: SP140L
How it was run: as §1

DIDO1 = tested on: DIDO1
How it was run: as §1

CHD5 (PPCC) = tested on: CHD5 (PPCC)
How it was run: as §1

AIRE (PP) = tested on: AIRE (PP)
How it was run: as §1

KDM5B (1) = tested on: KDM5B (1)
How it was run: as §1

TRIM66 (PB) = tested on: TRIM66 (PB)
How it was run: as §1

MORC3 (CW) = tested on: MORC3 (CW)
How it was run: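 A peptide microarray holding 293 synthetic histone peptides with individual or combinatorial modifications was probed with each GST-PHD protein at 0.5 μM. Values represent mean intensity (±SD) from four replicates.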

ING1 = tested on: ING1
How it was run: as §1

PHF21A = tested on: PHF21A
How it was run: as §1

ING4 = tested on: ING4
How it was run: as §1

RAG2 = tested on: RAG2
How it was run: as §1

CHD4 (PPCC) = tested on: CHD4 (PPCC)
How it was run: as §1

PHF23 = tested on: PHF23
How it was run: as §1

CHD5 (PCC) = tested on: CHD5 (PCC)
How it was run: as §1

BPTF (PB) = tested on: BPTF (PB)
How it was run: as §1

ING5 = tested on: ING5
How it was run: as §1

KDM7A = tested on: KDM7A
How it was run: as §1

PHF2 = tested on: PHF2
How it was run: as §1

KDM5A (1) = tested on: KDM5A (1)
How it was run: as §1

MLL5 = tested on: MLL5
How it was run: as §1

ING3 = tested on: ING3
How it was run: as §1

BAZ2B = tested on: BAZ2B
How it was run: as §1

KDM5B (3) = tested on: KDM5B (3)
How it was run: as §1

KDM4C (TTP) = tested on: KDM4C (TTP)
How it was run: as §1

PHRF1 (RP) = tested on: PHRF1 (RP)
How it was run: as §1

ING2 = tested on: ING2
How it was run: as §1

KDM5A (3) = tested on: KDM5A (3)
How it was run: as §1

TAF3 = tested on: TAF3
How it was run: as §1

DPF2 (PPC2W2) = tested on: DPF2 (PPC2W2)
How it was run: as §1

PHF8 = tested on: PHF8
How it was run: as §1

[1] = sheet "Array Heatmap", GST-tagged reader, total n = 4

## H3T3p: H3 1-20 [Peptide H3T3p]
PHF13; GST-tagged PHF13, arrays performed twice, n of 4
  Array Heatmap signal, PHF13: 0.5934
PHF13; [1]
  Array Heatmap signal, PHF13: 0.6741
SP140L; GST-tagged SP140L, arrays performed twice, n of 4
  Array Heatmap signal, SP140L: 0.3332
SP140L; [1]
  Array Heatmap signal, SP140L: 0.3882
DIDO1; GST-tagged DIDO1, arrays performed twice, n of 4
  Array Heatmap signal, DIDO1: 0.6402
DIDO1; [1]
  Array Heatmap signal, DIDO1: 0.7808
CHD5 (PPCC); GST-tagged CHD5 (PPCC = Dual PHD + Dual Chromodomain), arrays performed twice, n of 4
  Array Heatmap signal, CHD5 (PPCC): 0.549
CHD5 (PPCC); [1]
  Array Heatmap signal, CHD5 (PPCC): 0.6245
AIRE (PP); GST-tagged AIRE (PP), arrays performed twice, n of 4
  Array Heatmap signal, AIRE (PP): 0.5392
AIRE (PP); [1]
  Array Heatmap signal, AIRE (PP): 0.548
KDM5B (1); GST-tagged KDM5B (1), arrays performed twice, n of 4
  Array Heatmap signal, KDM5B (1): 0.6719
KDM5B (1); [1]
  Array Heatmap signal, KDM5B (1): 0.685
TRIM66 (PB); GST-tagged TRIM66 (PB = PHD + Bromodomain), arrays performed twice, n of 4
  Array Heatmap signal, TRIM66 (PB): 0.6313
TRIM66 (PB); [1]
  Array Heatmap signal, TRIM66 (PB): 0.6558
MORC3 (CW); GST-tagged MORC3 (CW = CW-type Zn-finger), arrays performed twice, n of 4
  Array Heatmap signal, MORC3 (CW): 0.3786
MORC3 (CW); [1]
  Array Heatmap signal, MORC3 (CW): 0.4886
ING1; GST-tagged ING1, arrays performed twice, n of 4
  Array Heatmap signal, ING1: 0.5096
ING1; [1]
  Array Heatmap signal, ING1: 0.5929
PHF21A; GST-tagged PHF21A, arrays performed twice, n of 4
  Array Heatmap signal, PHF21A: 0.4766
PHF21A; [1]
  Array Heatmap signal, PHF21A: 0.5237
ING4; GST-tagged ING4, arrays performed twice, n of 4
  Array Heatmap signal, ING4: 0.4601
ING4; [1]
  Array Heatmap signal, ING4: 0.5373
RAG2; GST-tagged RAG2, arrays performed twice, n of 4
  Array Heatmap signal, RAG2: 0.2333
RAG2; [1]
  Array Heatmap signal, RAG2: 0.2772
CHD4 (PPCC); GST-tagged CHD4 (PPCC = Dual PHD + Dual Chromodomain), arrays performed twice, n of 4
  Array Heatmap signal, CHD4 (PPCC): 0.5719
CHD4 (PPCC); [1]
  Array Heatmap signal, CHD4 (PPCC): 0.6586
PHF23; GST-tagged PHF23, arrays performed twice, n of 4
  Array Heatmap signal, PHF23: 0.4911
PHF23; [1]
  Array Heatmap signal, PHF23: 0.575
CHD5 (PCC); GST-tagged CHD5 (PCC = PHD + Dual Chromodomain), arrays performed twice, n of 4
  Array Heatmap signal, CHD5 (PCC): 0.8206
CHD5 (PCC); [1]
  Array Heatmap signal, CHD5 (PCC): 0.8423
BPTF (PB); GST-tagged BPTF (PB = PHD + Bromodomain), arrays performed twice, n of 4
  Array Heatmap signal, BPTF (PB): 0.3368
BPTF (PB); [1]
  Array Heatmap signal, BPTF (PB): 0.3878
ING5; GST-tagged ING5, arrays performed twice, n of 4
  Array Heatmap signal, ING5: 0.3543
ING5; [1]
  Array Heatmap signal, ING5: 0.4158
KDM7A; GST-tagged KDM7A, arrays performed twice, n of 4
  Array Heatmap signal, KDM7A: 0.4522
KDM7A; [1]
  Array Heatmap signal, KDM7A: 0.4256
PHF2; GST-tagged PHF2, arrays performed twice, n of 4
  Array Heatmap signal, PHF2: 0.434
PHF2; [1]
  Array Heatmap signal, PHF2: 0.5551
KDM5A (1); GST-tagged KDM5A (1), arrays performed twice, n of 4
  Array Heatmap signal, KDM5A (1): 0.4969
KDM5A (1); [1]
  Array Heatmap signal, KDM5A (1): 0.535
MLL5; GST-tagged MLL5, arrays performed twice, n of 4
  Array Heatmap signal, MLL5: 0.5378
MLL5; [1]
  Array Heatmap signal, MLL5: 0.5888
ING3; GST-tagged ING3, arrays performed twice, n of 4
  Array Heatmap signal, ING3: 0.4483
ING3; [1]
  Array Heatmap signal, ING3: 0.5306
BAZ2B; GST-tagged BAZ2B, arrays performed twice, n of 4
  Array Heatmap signal, BAZ2B: 0.469
BAZ2B; [1]
  Array Heatmap signal, BAZ2B: 0.5253
KDM5B (3); GST-tagged KDM5B (3), arrays performed twice, n of 4
  Array Heatmap signal, KDM5B (3): 0.5071
KDM5B (3); [1]
  Array Heatmap signal, KDM5B (3): 0.5631
KDM4C (TTP); GST-tagged KDM4C (TTP = Tandem Tudor domain + PHD), arrays performed twice, n of 4
  Array Heatmap signal, KDM4C (TTP): 0.5211
KDM4C (TTP); [1]
  Array Heatmap signal, KDM4C (TTP): 0.5646
PHRF1 (RP); GST-tagged PHRF1 (RP), arrays performed twice, n of 4
  Array Heatmap signal, PHRF1 (RP): 0.4037
PHRF1 (RP); [1]
  Array Heatmap signal, PHRF1 (RP): 0.5425
ING2; GST-tagged ING2, arrays performed twice, n of 4
  Array Heatmap signal, ING2: 0.5798
ING2; [1]
  Array Heatmap signal, ING2: 0.6196
KDM5A (3); GST-tagged KDM5A (3), arrays performed twice, n of 4
  Array Heatmap signal, KDM5A (3): 0.3913
KDM5A (3); [1]
  Array Heatmap signal, KDM5A (3): 0.4935
TAF3; GST-tagged TAF3, arrays performed twice, n of 4
  Array Heatmap signal, TAF3: 0.2971
TAF3; [1]
  Array Heatmap signal, TAF3: 0.3113
DPF2 (PPC2W2); GST-tagged DPF2 (PPC2W2 = Dual PHD + C2W2-type Zn-finger), arrays performed twice, n of 4
  Array Heatmap signal, DPF2 (PPC2W2): 0.671
DPF2 (PPC2W2); [1]
  Array Heatmap signal, DPF2 (PPC2W2): 0.7196
PHF8; GST-tagged PHF8, arrays performed twice, n of 4
  Array Heatmap signal, PHF8: 0.352
PHF8; [1]
  Array Heatmap signal, PHF8: 0.4275

## H3T6p + K9ac + K14ac + K18ac: H3 1-20
PHF13; [1]
  Array Heatmap signal, PHF13: 0.6581
SP140L; [1]
  Array Heatmap signal, SP140L: 0.3823
DIDO1; [1]
  Array Heatmap signal, DIDO1: 0.7306
CHD5 (PPCC); [1]
  Array Heatmap signal, CHD5 (PPCC): 0.5917
AIRE (PP); [1]
  Array Heatmap signal, AIRE (PP): 0.4905
KDM5B (1); [1]
  Array Heatmap signal, KDM5B (1): 0.6556
TRIM66 (PB); [1]
  Array Heatmap signal, TRIM66 (PB): 0.6292
MORC3 (CW); [1]
  Array Heatmap signal, MORC3 (CW): 0.436
ING1; [1]
  Array Heatmap signal, ING1: 0.5258
PHF21A; [1]
  Array Heatmap signal, PHF21A: 0.4965
ING4; [1]
  Array Heatmap signal, ING4: 0.4858
RAG2; [1]
  Array Heatmap signal, RAG2: 0.2892
CHD4 (PPCC); [1]
  Array Heatmap signal, CHD4 (PPCC): 0.6105
PHF23; [1]
  Array Heatmap signal, PHF23: 0.5587
CHD5 (PCC); [1]
  Array Heatmap signal, CHD5 (PCC): 0.8634
BPTF (PB); [1]
  Array Heatmap signal, BPTF (PB): 0.3772
ING5; [1]
  Array Heatmap signal, ING5: 0.4002
KDM7A; [1]
  Array Heatmap signal, KDM7A: 0.5379
PHF2; [1]
  Array Heatmap signal, PHF2: 0.4724
KDM5A (1); [1]
  Array Heatmap signal, KDM5A (1): 0.5024
MLL5; [1]
  Array Heatmap signal, MLL5: 0.6174
ING3; [1]
  Array Heatmap signal, ING3: 0.5178
BAZ2B; [1]
  Array Heatmap signal, BAZ2B: 0.5434
KDM5B (3); [1]
  Array Heatmap signal, KDM5B (3): 0.5165
KDM4C (TTP); [1]
  Array Heatmap signal, KDM4C (TTP): 0.5471
PHRF1 (RP); [1]
  Array Heatmap signal, PHRF1 (RP): 0.4494
ING2; [1]
  Array Heatmap signal, ING2: 0.6332
KDM5A (3); [1]
  Array Heatmap signal, KDM5A (3): 0.5014
TAF3; [1]
  Array Heatmap signal, TAF3: 0.2973
DPF2 (PPC2W2); [1]
  Array Heatmap signal, DPF2 (PPC2W2): 0.6625
PHF8; [1]
  Array Heatmap signal, PHF8: 0.3706
